Assay: Singlet oxygen quenching activity of carotenoids by the ESR method
Assay type: physicochemical
Settings: for singlet oxygen quenching activity compared with astaxanthin: ESR method, Table 3 and FIG. 1; for ESR signal intensity / ESR signal intensity Mean: carotenoid 2.5 mM, lower intensity = more effective quenching; for ESR signal intensity: hematoporphyrin + UVA, TMPD spin trap; for ESR signal intensity Mean: mean of three independent experiments, control 3.20
Description: Crosslinking of dermal collagen by singlet oxygen is one reason for wrinkle formation caused by photoaging (Non-Patent Document 1). If the external skin preparation according to the present invention can quench singlet oxygen, specifically, changes in collagen as observed on the photoaged skin can be inhibited, and anti-aging effects can be exerted. Accordingly, pharmacological evaluation of the external skin preparation according to the present invention in respect of improvement and prevention of wrinkle formation can be performed using the singlet oxygen quenching capacity as the indicator. For example, pharmacological evaluation of the external skin preparation according to the present invention can be performed by determining whether or not the external skin preparation according to the present invention has sufficient singlet oxygen quenching capacity by the electron spin resonance (ESR) method that is employed for evaluation of the singlet oxygen quenching activity.
Evaluation was carried out by the ESR method using an ESR apparatus (JEOLJES-FR30, JEOL Ltd.). The method of evaluation is described below.
50 μl of 250 mM spin trap agent, 50 μl of an aqueous solution of 2,2,6,6-tetramethyl-4-piperidione (TMPD), and 50 μl of an acetone solution of 10 mM carotenoid were added to 50 μl of 100 mM phosphate buffer (pH 7.4), these components were thoroughly mixed, 50 μl of an aqueous solution of 0.25 mM hematoporphyrin was added thereto as a singlet oxygen generator, and the resultant was irradiated with ultraviolet A (UVA) to generate singlet oxygen.
Subsequently, ESR signals based on stable nitroxyl radicals (4-oxo-TEMPO) generated upon the reaction between singlet oxygen and TMPD in the reaction solution were measured.
No antioxidant was applied to a control group. The results are the mean and the standard deviations of three independent experiments.

[1] = first of three independent experiments
[2] = second value column of three independent experiments
[3] = third value column of three independent experiments

Row | SMILES | singlet oxygen quenching activity compared with astaxanthin | ESR signal intensity [1] | ESR signal intensity [2] | ESR signal intensity [3] | ESR signal intensity Mean
1 | CC1=C(/C=C/C(C)=C/C=C/C(C)=C/C=C/C=C(C)/C=C/C=C(C)/C=C/C2=C(C)C(=O)[C@@H](O)CC2(C)C)C(C)(C)CCC1=O [Adonirubin, adonirubin] | significantly higher than that of astaxanthin | 0.79 | 1.13 | 1.11 | 1.01
2 | CC1=C(/C=C/C(C)=C/C=C/C(C)=C/C=C/C=C(C)/C=C/C=C(C)/C=C/C2=C(C)C(=O)[C@@H](O)CC2(C)C)C(C)(C)C[C@H](O)C1=O [Astaxanthin, astaxanthin, reference compound] |  | 2.00 | 2.33 | 2.72 | 2.35
3 | CC1=C(/C=C/C(C)=C/C=C/C(C)=C/C=C/C=C(C)/C=C/C=C(C)/C=C/C2=C(C)C(=O)[C@@H](O)CC2(C)C)C(C)(C)C[C@H](O)C1 [Adonixanthin, adonixanthin] | significantly higher than that of astaxanthin | 0.74 | 0.97 | 0.72 | 0.81

From patent US20130317116A1, “EXTERNAL SKIN PREPARATION” (JX NIPPON OIL & ENERGY CORPORATION, priority 2011, published 2013)
